Measured values as given in US20230047788A1, “COMPOSITIONS COMPRISING 5-CHOLESTEN-3, 25-DIOL, 3-SULFATE (25HC3S) OR PHARMACEUTICALLY ACCEPTABLE SALT THEREOF AND AT LEAST ONE CYCLIC OLIGOSACCHARIDE” (Virginia Commonwealth University, priority 2016, published 2023).
“And” between values parts separate entries of the source, which are not always exact repeats. Equal entries are not always repeated.

Columns and labels:
[1] = Solubility of 25HC3S in water as function of HPbCD or SBECD concentration at room temperature; format: physicochemical; conditions: for 25HC3S Solubility / Molar of 25HC3S: room temperature
Experimental: A total of six suspensions of 25HC3S sodium salt were prepared in water containing 0, 50, 100, 200, 250 and 400 mg/mL hydroxypropyl-β-cyclodextrin (HPbCD, hydroxypropyl betadex) or sulfobutyl ether β-cyclodextrin (SBECD, Captisol®). Both cyclodextrins are used in approved pharmaceutical products and are manufactured as Good Manufacturing Practice (GMP) excipients. Each suspension was agitated at room temperature, aliquots were centrifuged, and the supernatant solutions assayed for 25HC3S concentrations by a reverse phase HPLC method. The solubility data of 25HC3S as a function of HPbCD concentrations is in Table 1 and as a function of SBECD concentrations is in Table 2.

[2] = Solubility of 25HC3S in alpha-, beta- and gamma-cyclodextrin, 10 mM phosphate buffer pH 7.4; format: physicochemical; conditions: for repeated solubility of 25HC3S: repeated experiment
Experimental: The solubility of 25HC3S at ambient room temperature for one day in 5 and 10% (w/v) alpha cyclodextrin (α-CD), 1% (w/v) beta cyclodextrin (β-CD) and 5 and 10% (w/v) gamma cyclodextrin (γ-CD), each containing 10 mM phosphate buffer at pH 7.4 was determined by an HPLC method.
α-CD, β-CD and γ-CD were used in the study. Sodium phosphate monobasic, monohydrate and sodium phosphate, dibasic, anhydrous were used to prepare 10 mM phosphate buffer at pH 7.4.
Approximately 30 to 50 mg of 25HC3S was weighed into a 20 mL vial (5 vials total, one vial for each vehicle). Approximately 8 mL each of 5 and 10% (w/v) α-CD, 1% (w/v) β-CD, and 5 and 10% (w/v) γ-CD containing 10 mM phosphate buffer at pH 7.4 was added to each vial, respectively. The samples were sonicated and vortexed to disperse the drug. The drug suspensions in these 5 vials were stirred at 500 rpm at ambient RT (20.0-22.2° C.). On day 1, approximately 1.2 mL each of the suspensions was transferred into 2 mL conical vials (a total of 5 vials for each suspension) and centrifuged at 12,000 rpm for 10 min. Approximately 1 mL of the supernatant from each suspension (prior to filtration) was used for HPLC analysis. The supernatants for the rest of the vials from the same suspension were combined together and filtered through […], 13 mm in diameter Acrodisk syringe filter with Nylon membrane. The first 2-mL of filtrate was discarded. The next 2 consecutive filtrates of 0.5-0.7 mL each were collected into HPLC vials for analysis.

SMILES: C[C@H](CCCC(C)(C)O)[C@H]1CC[C@H]2[C@@H]3CC=C4C[C@@H](OS(=O)(=O)[O-])CC[C@]4(C)[C@H]3CC[C@]12C.[Na+] [25HC3S, 5-cholesten-3, 25-diol, 3-sulfate]
- 25HC3S Solubility ([1]; 50 mg/mL HPbCD in water): 9780 µg/mL
- Molar of 25HC3S ([1]; 50 mg/mL HPbCD in water): 0.01938 Molar
- 25HC3S Solubility ([1]; 50 mg/mL SBECD in water): 6030 µg/mL
- Molar of 25HC3S ([1]; 50 mg/mL SBECD in water): 0.01195 Molar
- 25HC3S Solubility ([1]; 100 mg/mL HPbCD in water): 18440 µg/mL
- Molar of 25HC3S ([1]; 100 mg/mL HPbCD in water): 0.03654 Molar
- 25HC3S Solubility ([1]; 100 mg/mL SBECD in water): 9860 µg/mL
- Molar of 25HC3S ([1]; 100 mg/mL SBECD in water): 0.01954 Molar
- 25HC3S Solubility ([1]; 200 mg/mL HPbCD in water): 31970 µg/mL
- Molar of 25HC3S ([1]; 200 mg/mL HPbCD in water): 0.06334 Molar
- 25HC3S Solubility ([1]; 200 mg/mL SBECD in water): 21240 µg/mL
- Molar of 25HC3S ([1]; 200 mg/mL SBECD in water): 0.04208 Molar
- 25HC3S Solubility ([1]; 250 mg/mL HPbCD in water): 42370 µg/mL
- Molar of 25HC3S ([1]; 250 mg/mL HPbCD in water): 0.08395 Molar
- 25HC3S Solubility ([1]; 400 mg/mL HPbCD in water): 66000 µg/mL and 65180 µg/mL
- Molar of 25HC3S ([1]; 400 mg/mL HPbCD in water): 0.1291 Molar
- 25HC3S Solubility ([1]; 400 mg/mL SBECD in water): 44760 µg/mL
- Molar of 25HC3S ([1]; 400 mg/mL SBECD in water): 0.08869 Molar
- relative amounts of HPbCD needed to solubilize 25HC3S (ratio) ([1]; mg/mL basis, water): 6 to 1
- 25HC3S Solubility ([1]; water, 0 mg/mL cyclodextrin): 140 µg/mL
- Molar of 25HC3S ([1]; water, 0 mg/mL cyclodextrin): 0.00028 Molar
- 25HC3S Solubility ([2]; 0 cyclodextrin, 10 mM phosphate pH 7.4, room temperature): 6 μg/mL and 0.012 mM
- 25HC3S Solubility ([2]; 1% (w/v) beta-CD): 4.314 mM
- Complexation with CD ([2]; 1% (w/v) beta-CD): yes
- Ratio of CD/25HC3S ([2]; 1% (w/v) beta-CD): 2 mM/mM
- 25HC3S Solubility ([2]; 1% (w/v) beta-CD (10 mg/mL), 10 mM phosphate pH 7.4, RT, one day): 2177.4 µg/mL
- 25HC3S Solubility ([2]; 5% (w/v) alpha-CD): 0.065 mM
- Complexation with CD ([2]; 5% (w/v) alpha-CD): no
- Ratio of CD/25HC3S ([2]; 5% (w/v) alpha-CD): 791 mM/mM
- 25HC3S Solubility ([2]; 5% (w/v) alpha-CD (50 mg/mL), 10 mM phosphate pH 7.4, RT, one day): 32.9 µg/mL
- 25HC3S Solubility ([2]; 5% (w/v) gamma-CD): 1.118 mM
- Complexation with CD ([2]; 5% (w/v) gamma-CD): no
- Ratio of CD/25HC3S ([2]; 5% (w/v) gamma-CD): 34 mM/mM
- 25HC3S Solubility ([2]; 5% (w/v) gamma-CD (50 mg/mL), 10 mM phosphate pH 7.4, RT, one day): 564.4 µg/mL
- repeated solubility of 25HC3S ([2]; 5% (w/v) γ-CD): 292.4 µg/mL
- 25HC3S Solubility ([2]; 10% (w/v) alpha-CD): 0.089 mM
- Complexation with CD ([2]; 10% (w/v) alpha-CD): no
- Ratio of CD/25HC3S ([2]; 10% (w/v) alpha-CD): 1155 mM/mM
- 25HC3S Solubility ([2]; 10% (w/v) alpha-CD (100 mg/mL), 10 mM phosphate pH 7.4, RT, one day): 45 µg/mL
- 25HC3S Solubility ([2]; 10% (w/v) gamma-CD): 0.301 mM
- Complexation with CD ([2]; 10% (w/v) gamma-CD): no
- Ratio of CD/25HC3S ([2]; 10% (w/v) gamma-CD): 256 mM/mM
- 25HC3S Solubility ([2]; 10% (w/v) gamma-CD (100 mg/mL), 10 mM phosphate pH 7.4, RT, one day): 152.1 µg/mL
- repeated solubility of 25HC3S ([2]; 10% (w/v) γ-CD): 98.2 µg/mL
